The source of these data is patent US5821222A, “Cyclic depsipeptides having 18 ring atoms for combating endoparasites” (Bayer Aktiengesellschaft, priority 1992, dated 1998).

Experiment [1] deals with Trichinella spiralis. Briefly: Trichinella spiralis in vitro. Type of experiment: cell-based. The conditions noted are these: Trichina larvae from mouse muscle, incubation 5 days at 19° C.; tested at 100, 10 and 1 μm/ml. The method, then: Trichinella spiralis in vitro
(§1) Trichina lavae are isolated from mice's muscle and washed in 0.9% NaCl supplemented with 20 μg/ml sisomycin and 2 μg/ml clotrimazole. The actual incubation of approximately 20 trichinae per measurement is carried out in 2 ml of a solution composed of 10 g of Bacto Casitone, 5 g of yeast (yeast extract), 2.5 g of glucose, 0.4 g of KH2 PO4 and 0.4 g of K2 HPO4 per 500 ml, pH 7.2, containing 10 μm/ml of sisomycin and 1 μm/ml of clotrimazole. 10 mg of the substance to be tested are dissolved in 0.5 ml of DMSO, and such an amount is added to the incubation medium that the end concentration is 100, 10 and 1 μm/ml. The experiment is evaluated after incubation for 5 days at 19° C.

For experiment [2], the system named is Heterakis spumose. Briefly: Heterakis spumose in vitro test (mobility and egg excretion). Type of experiment: cell-based. The conditions noted are these: 10 female nematodes, incubation 3 days at 37° C. The method, then:
as §1
Female Heterakis spumose nematodes are isolated from the colon and caecum of mice. 10 females are incubated for 3 days at 37° C. in 1.5 ml of medium used for the Trichinella spiarlis in-vitro test. The addition of test substances is likewise carried out as described for the trichina test. To test the anthelmintic activity, mobility and egg excretion are assessed in comparison with the control. Enniatins A1, B and B1 are active at a concentration of 10 μM/ml.

The subject of experiment [3] is Haemonchus contortus. Briefly: In vivo nematode test Haemonchus contortus/sheep. The conditions noted are these: experimentally infected sheep, oral and/or intravenous; egg excretion stopped completely after treatment. As to the method: Haemonchus contortus/sheep
Shaft which have been infected experimentally with Haemonchus contortus were treated after the prepatent time of the parasite had elapsed. The active compounds were applied orally and/or intravenously in the form of the pure active compound.
The degree of effectiveness is determined by quantitatively counting the worm eggs excreted with the faeces before and after the treatment.
If the egg excretion has stopped completely after the treatment, this means that the worms were aborted or are damaged to such an extent that they no longer produce eggs (dosis effectiva).
Active compounds tested and effective dosage rates (dosis effectiva) can be seen from the table which follows: […]

As for `CC[C@H](C)[C@H]1C(=O)O[C@H](C(C)C)C(=O)N(C)[C@@H](C(C)C)C(=O)O[C@H](C(C)C)C(=O)N(C)[C@@H](C(C)C)C(=O)O[C@H](C(C)C)C(=O)N1C` [Enniatin B1, enniatin B1], in experiment [1], the effective concentration was determined as 100 μm/ml. For the same compound, the “active concentration (mobility and egg excretion compared with control)” value in experiment [2] came to 10 μM/ml. For `CC[C@H](C)[C@H]1C(=O)O[C@H](C(C)C)C(=O)N(C)[C@@H]([C@@H](C)CC)C(=O)O[C@H](C(C)C)C(=O)N(C)[C@@H](C(C)C)C(=O)O[C@H](C(C)C)C(=O)N1C` [Enniatin A1, enniatin A1] the same measures were 100 μm/ml and 10 μM/ml.

`CC[C@H](C)[C@H]1C(=O)O[C@H](C)C(=O)N(C)[C@@H]([C@@H](C)CC)C(=O)O[C@H](C)C(=O)N(C)[C@@H]([C@@H](C)CC)C(=O)O[C@H](C)C(=O)N1C` [Example 1, Cyclo(N-methyl-L-isoleucyl-D-lactyl-N-methyl-L-isoleucyl-D-lactyl-N-methyl- L-isoleucyl-D-lactyl-)]: the Dosis effectiva in experiment [3] worked out at 5 mg/kg.

Take `CC(C)[C@H]1C(=O)O[C@H](C(C)C)C(=O)N(C)[C@@H](C(C)C)C(=O)O[C@H](C(C)C)C(=O)N(C)[C@@H](C(C)C)C(=O)O[C@H](C(C)C)C(=O)N1C` [Enniatin B, enniatin B]: the effective concentration in experiment [1] came out at 100 μm/ml. For the same compound, in experiment [2], the “active concentration (mobility and egg excretion compared with control)” value was determined as 10 μM/ml.
